# Test results reported in paper PMC7809101, “Fetal bovine serum albumin inhibits antimicrobial peptide activity and binds drug only in complex with α1-antitrypsin” (Scientific Reports, 2021).
# T1: protein B (α1-antitrypsin) (Bos taurus, UniProt P34955)
# T1 sequence (P34955 25-416): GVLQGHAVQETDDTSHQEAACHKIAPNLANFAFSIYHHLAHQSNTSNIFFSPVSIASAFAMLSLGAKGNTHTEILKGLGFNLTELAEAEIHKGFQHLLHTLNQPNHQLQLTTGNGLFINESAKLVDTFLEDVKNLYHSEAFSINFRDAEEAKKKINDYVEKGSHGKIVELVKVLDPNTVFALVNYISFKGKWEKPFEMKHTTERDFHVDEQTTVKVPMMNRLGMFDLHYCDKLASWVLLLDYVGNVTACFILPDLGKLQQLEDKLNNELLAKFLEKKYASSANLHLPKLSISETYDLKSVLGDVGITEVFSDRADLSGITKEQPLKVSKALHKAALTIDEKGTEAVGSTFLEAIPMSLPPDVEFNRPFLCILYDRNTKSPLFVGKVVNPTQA
# Experiments:
# [1] = tested on: bovine serum albumin; parameters: method as in PMID 24456893, PMID 18779351, PMID 17569519; details: ref [12],[16],[17]; cited from earlier work
# Experimental: (§1) Albumin is the most abundant protein in human serum (HSA, 45 mg/ml), followed in descending order by α1-antitrypsin (A1AT, 3.5 mg/ml), transferrin (2.5 mg/ml), α2-macroglobulin (2.5 mg/ml), haptoglobulin (1.8 mg/ml), low-density lipoprotein (LDL, 1.2 mg/ml), α1-acid glycoprotein (AGP, 0.8 mg/ml) and high-density lipoprotein (HDL, 0.6 mg/ml)[11]. These proteins are involved in the transportation of fatty acids, cholesterols, toxins and drugs in the blood stream.
# [2] = tested on: human serum albumin; details: cited from earlier work
# [3] = biological target: T2, protein D (albumin and α1-antitrypsin complex) (Bos taurus, UniProt P02769+P34955); assay: Fluorescence emission spectrum (blue shift), protein D; assay type: binding, bovine; details: protein D 0.75 μM, PC buffer, 25 °C, 30 min; excitation 285 nm, emission 300–450 nm; reagent up to: sarkosyl 320, TP4-A12I,A15I 120, ibuprofen 24, phenytoin 20 μM
# T2 construct: The active components were further purified by fast performance liquid chromatography (FPLC) Mono Q and S12 column chromatography from the 70% saturated fraction; from tissue; host or cells: fetal bovine serum (70% ammonium sulfate fraction, FPLC Mono Q and Superose 12)
# T2 sequence (P02769 25-607, one chain of several): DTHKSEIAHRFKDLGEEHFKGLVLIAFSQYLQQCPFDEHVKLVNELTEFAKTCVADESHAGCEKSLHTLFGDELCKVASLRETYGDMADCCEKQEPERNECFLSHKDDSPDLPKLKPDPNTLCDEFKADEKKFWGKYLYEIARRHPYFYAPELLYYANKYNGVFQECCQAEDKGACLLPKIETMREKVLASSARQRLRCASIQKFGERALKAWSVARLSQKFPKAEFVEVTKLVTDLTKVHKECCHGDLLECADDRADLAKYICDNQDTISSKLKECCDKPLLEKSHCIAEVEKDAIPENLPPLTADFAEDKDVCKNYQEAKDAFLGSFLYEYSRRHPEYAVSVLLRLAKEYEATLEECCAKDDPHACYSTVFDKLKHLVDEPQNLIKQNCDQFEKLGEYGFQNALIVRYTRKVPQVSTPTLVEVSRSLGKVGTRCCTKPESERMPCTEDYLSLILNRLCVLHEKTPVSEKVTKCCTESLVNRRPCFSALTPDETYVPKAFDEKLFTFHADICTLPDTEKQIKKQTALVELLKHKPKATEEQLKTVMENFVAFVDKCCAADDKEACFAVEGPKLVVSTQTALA
# Experimental: (§2) The mixtures were excited by 285 nm and its emission spectra were recorded between 300 and 450 nm using a temperature-controlled fluorimeter (FP8500, Jasco, Japan)[13].
# [4] = biological target: protein A (albumin) (Bos taurus, UniProt P02769); assay: Fluorescence emission spectrum (blue shift), protein A; assay type: binding, bovine; parameters: The homogeneities of collected protein A (albumin), protein B (α1-antitrypsin), protein C (serotransferrin) and protein D complex; from tissue; host or cells: fetal bovine serum (70% ammonium sulfate fraction, FPLC Mono Q); details: protein A 0.75 μM, PC buffer, 25 °C, 30 min; excitation 285 nm, emission 300–450 nm; reagent up to: sarkosyl 320, TP4-A12I,A15I 120, ibuprofen 24, phenytoin 20 μM
# protein A (albumin), sequence (P02769 25-607): as the sequence (P02769 25-607, one chain of several) above
# Experimental: as §2
# [5] = tested on: Escherichia coli K-12 (MG1655); assay: Antimicrobial (bactericidal) activity against E. coli, effect of serum or serum proteins; assay type: cell-based; details: 5% (v/v) FBS in PBS, 37 °C; remaining viable cells (cfu)
# Experimental: The Gram-negative bacteria Escherichia coli K-12 (MG1655) was cultured and plated in/on Luria–Bertani broth/agar plate (Merck Millipore, Darmstadt, Germany). The Gram-positive Staphylococcus aureus (ATCC 6538P) was cultured and plated in tryptic soy broth/agar (BD, MD, USA). The fungus Candida albicans (ATCC 14,053) was cultured and plated in YM broth/agar (BD, MD, USA). The bacteria were grown overnight, washed, and diluted 1:2000 in phosphate buffered saline (PBS), pH 7.5 or DMEM (Life Biotech, California, USA), pH 7.4. Bacteria (ca. 1 × 10^6 colony-forming units, cfu) were mixed with antimicrobial peptides (AMP) in 100 μl PBS and incubated at 37 °C (for bacteria) and at 30 °C (for fungus). Serial dilutions of each AMP-treated bacteria in PBS/DMEM supplemented with FBS were prepared and plated for the determination of remaining viable cells (expressed as cfu). At least three independent experiments were performed for each assay to determine the average value with standard deviation. MBC was defined as the lowest AMP concentration that kills 99.9% of the original inoculum.
# [6] = tested on: fetal bovine serum (FBS); assay: Band shift of AMPs by fetal bovine serum; assay type: binding; details: 10–40% FBS; AMP 4 μg; PC buffer, room temperature, 30 min; horizontal native 8% PAGE
# Experimental: (§3) Various AMPs (4 μg each) were incubated with fetal bovine serum (FBS) components at room temperature in 10 μl PC buffer for 30 min and subjected to horizontal native 8% PAGE, pH8.0 or pH8.8, and Coomassie Blue staining.
# [7] = biological target: T2, protein D (albumin and α1-antitrypsin complex); assay: Band shift of AMPs by protein D; assay type: binding, bovine; details: AMP 4 μg; protein 10 μg (Suppl. Fig. 3a); PC buffer, room temperature, 30 min; 8% horizontal native PAGE
# [8] = biological target: T1, protein B (α1-antitrypsin); assay: Band shift of AMPs by protein B; assay type: binding, bovine; parameters: The homogeneities of collected protein A (albumin), protein B (α1-antitrypsin), protein C (serotransferrin) and protein D complex; from tissue; host or cells: fetal bovine serum (70% ammonium sulfate fraction, FPLC Mono Q); details: AMP 4 μg; protein 10 μg (Suppl. Fig. 3a); PC buffer, room temperature, 30 min; 8% horizontal native PAGE
# Experimental: as §3
# [9] = tested on: human serum components; details: cited from earlier work
# Experimental: as §1
# [10] = tested on: trypsin; assay: Antitrypsin activity analysis; assay type: biochemical; details: trypsin 2 ng (0.2 μg/ml) pre-incubated 30 min, PC buffer, 37 °C, 15% reduced SDS-PAGE; for inhibition of proteolytic activity of trypsin toward SAAP159: substrate SAAP159 4 μg (0.4 mg/ml); for inhibition of proteolytic activity of trypsin toward TP4: substrate TP4 2 μg (0.2 mg/ml)
# Experimental: The inhibitions of trypsin’s proteolytic activity by serum components on peptides TP4 and SAAP159 were determined as follows. Freshly diluted trypsin (2 ng; 0.2 μg/ml) was pre-incubated with various concentrations of serum components in PC buffer for 30 min before the mixture was added to TP4 (2 μg; 0.2 mg/ml) or SAAP159 (4 μg/; 0.4 mg/ml) peptides in 10 μl PC buffer at 37 °C for 30 min. The digested peptide fragments were analyzed by 15% reduced SDS-PAGE and Coomassie Blue staining.
# [11] = biological target: biotinylated TP4-A12I,A15I (tilapia); assay: BLI; Octet RED384; biotinylated TP4-A12I,A15I (10 μM) immobilised on a Streptavidin biosensor; serial dilutions of serum components in PC buffer as analyte; global fit (1:1)
# protein D complex (albumin and α1-antitrypsin), sequence (P02769 25-607, one chain of several): as above
molecule,measurement,setting,value
CO/N=C(\C(=O)N[C@@H]1C(=O)N2C(C(=O)O)=C(CSc3nc(=O)c(=O)[nH]n3C)CS[C@H]12)c1csc(N)n1 [ceftriaxone],bound and inhibited by bovine serum albumin,[1],bound and inhibited
same,bound and inhibited by human serum albumin,"[2]; ref [12],[16],[17]",bound and inhibited
COc1c(N2C[C@@H]3CCCN[C@@H]3C2)c(F)cc2c(=O)c(C(=O)O)cn(C3CC3)c12 [moxifloxacin],bound and inhibited by bovine serum albumin,[1],bound and inhibited
CCCCCCCCCCCC(=O)N(C)CC(=O)[O-].[Na+] [sarkosyl],"blue shift of fluorescence emission spectrum, protein D",[3],caused blue shifts
same,"blue shift of fluorescence emission spectrum, protein A",[4],caused blue shifts
CC(=O)CC(c1ccccc1)c1c(O)c2ccccc2oc1=O (stereo not drawn) [warfarin],bound to site I of human albumin,"[2]; site I, ref [8]–[10]",More than 90%
Iseganan [reference compound],effect of FBS on antimicrobial activity against E. coli,[5],serum-mediated repression
same,mobility of AMP in band shift assay with FBS,[6],retarded
same,binding to protein D (band shift),[7],also bound by protein D
same,binding to protein B (band shift),[8],not by protein A and protein B
Polymyxin B,effect of FBS on antimicrobial activity against E. coli,[5],not
daptomycin,bound to human serum components,[9],90-94%
same,order of binding to human serum components,[9],albumin > > α1-antitrypsin > low-density lipoprotein > high-density lipoprotein > transferrin
same,bound by human serum albumin,[2],90-94%
"protein A: bovine serum albumin, free form, purified from fetal bovine serum",inhibition of proteolytic activity of trypsin toward SAAP159,[10],only minimally affected
same,inhibition of proteolytic activity of trypsin toward TP4,[10],only minimally affected
protein D complex (albumin and α1-antitrypsin) (from UniProt P02769 25-607; P34955 25-416),Kd,[11],21.7 nM
"protein D: albumin and α1-antitrypsin complex linked by disulfide bond, from fetal bovine serum",inhibition of proteolytic activity of trypsin toward SAAP159,[10],repressed
same,inhibition of proteolytic activity of trypsin toward TP4,[10],repressed
"protein B: bovine α1-antitrypsin, free form, purified from fetal bovine serum (protein) GVLQGHAVQETDDTSHQEAACHKIAPNLANFAFSIYHHLAHQSNTSNIFFSPVSIASAFAMLSLGAKGNTHTEILKGLGFNLTELAEAEIHKGFQHLLHTLNQPNHQLQLTTGNGLFINESAKLVDTFLEDVKNLYHSEAFSINFRDAEEAKKKINDYVEKGSHGKIVELVKVLDPNTVFALVNYISFKGKWEKPFEMKHTTERDFHVDEQTTVKVPMMNRLGMFDLHYCDKLASWVLLLDYVGNVTACFILPDLGKLQQLEDKLNNELLAKFLEKKYASSANLHLPKLSISETYDLKSVLGDVGITEVFSDRADLSGITKEQPLKVSKALHKAALTIDEKGTEAVGSTFLEAIPMSLPPDVEFNRPFLCILYDRNTKSPLFVGKVVNPTQA",inhibition of proteolytic activity of trypsin toward SAAP159,[10],repressed
same,inhibition of proteolytic activity of trypsin toward TP4,[10],repressed
